Test results as given in the supplement of paper PMC10307832.

How the values were obtained:
Assay in all cases: relative viability (nuclei count vs DMSO), 5 days (fraction); higher = more cells survive
Vismodegib + Crizotinib = compound: CS(=O)(=O)c1ccc(C(=O)Nc2ccc(Cl)c(-c3ccccn3)c2)c(Cl)c1 [Vismodegib] + C[C@@H](Oc1cc(-c2cnn(C3CCNCC3)c2)cnc1N)c1c(Cl)ccc(F)c1Cl [Crizotinib] (partner 1 µM)
Outline: (§1)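 Each reported value is a median over duplicate plates. It expresses relative viability: treated-well nuclei count divided by vehicle-well nuclei count. Lung cancer cell lines in 1536-well plates were dosed by pin tool a day after seeding, alone with one drug or with a fixed anchor-drug dose plus five library-drug doses (not always all listed) in √10 steps, and nuclei were counted after 5 days.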

Ruxolitinib + Bortezomib = compound: N#CC[C@H](C1CCCC1)n1cc(-c2ncnc3[nH]ccc23)cn1 [Ruxolitinib] + CC(C)C[C@H](NC(=O)[C@H](Cc1ccccc1)NC(=O)c1cnccn1)B(O)O [Bortezomib] (partner 0.002 µM)
Outline: as §1

VE-821 + Phenformin = compound: CS(=O)(=O)c1ccc(-c2cnc(N)c(C(=O)Nc3ccccc3)n2)cc1 [VE-821] + N=C(N)NC(=N)NCCc1ccccc1 [Phenformin] (partner 250 µM)
Outline: as §1

VE-821 + Palbociclib = compound: CS(=O)(=O)c1ccc(-c2cnc(N)c(C(=O)Nc3ccccc3)n2)cc1 [VE-821] + CC(=O)c1c(C)c2cnc(Nc3ccc(N4CCNCC4)cn3)nc2n(C2CCCC2)c1=O [Palbociclib] (partner 0.5 µM)
Outline: as §1

Cell Line	relative viability (Vismodegib + Crizotinib; first compound 0.08 µM)	relative viability (Vismodegib + Crizotinib; first compound 0.253 µM)	relative viability (Vismodegib + Crizotinib; first compound 0.8 µM)	relative viability (Vismodegib + Crizotinib; first compound 2.53 µM)	relative viability (Vismodegib + Crizotinib; first compound 8 µM)	relative viability (Ruxolitinib + Bortezomib; first compound 0.08 µM)	relative viability (Ruxolitinib + Bortezomib; first compound 0.253 µM)	relative viability (Ruxolitinib + Bortezomib; first compound 0.8 µM)	relative viability (Ruxolitinib + Bortezomib; first compound 2.53 µM)	relative viability (Ruxolitinib + Bortezomib; first compound 8 µM)	relative viability (VE-821 + Phenformin; first compound 0.08 µM)	relative viability (VE-821 + Phenformin; first compound 0.253 µM)	relative viability (VE-821 + Phenformin; first compound 0.8 µM)	relative viability (VE-821 + Phenformin; first compound 2.53 µM)	relative viability (VE-821 + Phenformin; first compound 8 µM)	relative viability (VE-821 + Palbociclib; first compound 0.08 µM)	relative viability (VE-821 + Palbociclib; first compound 0.253 µM)	relative viability (VE-821 + Palbociclib; first compound 0.8 µM)	relative viability (VE-821 + Palbociclib; first compound 2.53 µM)	relative viability (VE-821 + Palbociclib; first compound 8 µM)
RERF-LC-KJ	0.821	0.813	0.81	0.848	0.82	1.09	1.11	1.2	1	0.986	0.397	0.361	0.377	0.407	0.41	1.2	1.01	0.973	0.929	0.792
NCI-H1975	0.953	0.957	0.945	0.826	0.94	0.415	0.382	0.482	0.303	0.316	0.397	0.394		0.418	0.36	0.601	0.473	0.349	0.607	0.415
NCI-H661	0.961	0.94	1.05	0.93	1.01	0.66	0.858	0.998	0.792	0.908	0.282	0.255	0.272	0.286	0.311	0.409	0.453	0.415	0.4	0.413
HOP-62	0.991	0.905	0.867	0.503	0.908		0.719	1.15	0.856	0.763	0.671	0.611	0.77	0.696	0.667	0.508	0.459	0.471	0.463	0.461
HCC-15	0.782	0.859	0.889	0.879	0.83	1.08	1.05	1.01	0.99	0.926	0.625	0.473	0.506	0.526	0.438	0.822	0.767	0.809	0.907	0.748
A-427	0.833	0.838	0.927	0.857	0.882	0.983	0.955	0.985	1.06	0.782	0.341	0.319	0.293	0.365	0.225	0.55	0.547	0.565	0.562	0.449
